# Measured values published in patent publication US10183938B2, “Geminal substituted quinuclidine amide compounds as agonists of α-7 nicotonic acetylcholine receptors” (AXOVANT SCIENCES GMBH, priority 2014, dated 2019).
# Structures can show the parent of a compound that is named as a salt.
# Target: human α7 nAChRs transiently expressed in Xenopus laevis oocytes (Homo sapiens (Human), UniProt P36544)
# Assay: Oocyte electrophysiology screen (TEVC)
# Assay type: cell-based
# Details: 0.01 mM test compound, peak current relative to 0.2 mM ACh
# In short: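 Oocytes expressing human α7 were clamped at −80 mV by TEVC. After a 0.2 mM ACh control pulse, test compound was applied at 0.01 mM for 30 s. Agonist response is peak current as % of the ACh response, in triplicate.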
# Chain of human α7 nAChRs transiently expressed in Xenopus laevis oocytes (P36544 23-502 limits assumed): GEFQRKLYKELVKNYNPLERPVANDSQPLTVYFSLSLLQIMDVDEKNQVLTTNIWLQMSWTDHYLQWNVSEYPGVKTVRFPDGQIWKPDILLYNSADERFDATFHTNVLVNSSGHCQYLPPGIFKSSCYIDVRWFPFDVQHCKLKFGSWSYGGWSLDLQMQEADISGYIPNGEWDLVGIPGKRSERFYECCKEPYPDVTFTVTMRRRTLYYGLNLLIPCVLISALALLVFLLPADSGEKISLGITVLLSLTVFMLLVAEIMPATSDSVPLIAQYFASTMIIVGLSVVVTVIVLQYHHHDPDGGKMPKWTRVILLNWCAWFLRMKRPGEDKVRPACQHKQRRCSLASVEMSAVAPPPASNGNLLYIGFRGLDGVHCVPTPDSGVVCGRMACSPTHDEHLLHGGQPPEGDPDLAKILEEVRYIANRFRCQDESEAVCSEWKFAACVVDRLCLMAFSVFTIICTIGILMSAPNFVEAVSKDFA
row,SMILES,% ACh @ 10 μM Oocyte [% ACh]
1,"Cc1nc2ccc(C(=O)N[C@@H]3C4CCN(CC4)C3(C)C)cc2s1 [(R)-35, (R)—N-(2,2-dimethylquinuclidin-3-yl)-2-methylbenzo[d]thiazole-6-carboxamide hydrochloride]",6
2,"CC1(C)[C@H](NC(=O)c2cc3ccc(-n4ccnn4)cc3s2)C2CCN1CC2.Cl [(R)-208, (R)-N-(2,2-dimethylquinuclidin-3-yl)-6-(1H-1,2,3-triazol-1-yl)benzo[b]thiophene-2-carboxamide hydrochloride]",0
3,"O=C(N[C@@H]1C2CCN(CC2)C12CC2)c1nc2ccccc2s1 [(R)-82, (R)—N-(1′-azaspiro[cyclopropane-1,2′-bicyclo[2.2.2]octan]-3′-yl)benzo[d]thiazole-2-carboxamide hydrochloride]",239
4,"CC1(C)[C@@H](NC(=O)c2cc3cc(C4CC4)ccc3s2)C2CCN1CC2 [(S)-19, (S)-5-cyclopropyl-N-(2,2-dimethylquinuclidin-3-yl)benzo[b]thiophene-2-carboxamide hydrochloride]",3
5,"CC1(C)[C@@H](NC(=O)c2nc3ccccc3s2)C2CCN1CC2 [(S)-29, (S)—N-(2,2-dimethylquinuclidin-3-yl)benzo[d]thiazole-2-carboxamide hydrochloride]",2
6,"CC1(C)[C@H](NC(=O)c2cc3ccc(N)cc3s2)C2CCN1CC2 [(R)-49, (R)-6-amino-N-(2,2-dimethylquinuclidin-3-yl)benzo[b]thiophene-2-carboxamide hydrochloride]",576
7,"Cl.Cn1c(C(=O)N[C@@H]2C3CCN(CC3)C2(C)C)cc2ccccc21 [(R)-221, (R)-N-(2,2-dimethylquinuclidin-3-yl)-1-methyl-1H-indole-2-carboxamide hydrochloride]",188
8,"CC1(C)[C@H](NC(=O)c2ccc3c(c2)OCCO3)C2CCN1CC2.Cl [(R)-215, (R)-N-(2,2-dimethylquinuclidin-3-yl)-2,3-dihydrobenzo[b][1,4]dioxine-6-carboxamide hydrochloride]",86
9,"CC1(C)[C@@H](NC(=O)c2cc3c(cn2)OCCO3)C2CCN1CC2 [(S)-23, (S)—N-(2,2-dimethylquinuclidin-3-yl)-2,3-dihydro-[1,4]dioxino[2,3-c]pyridine-7-carboxamide hydrochloride]",0
10,"O=C(N[C@@H]1C2CCN(CC2)C12CC2)c1cc2cccnc2s1 [(R)-81, (R)—N-(1′-azaspiro[cyclopropane-1,2′-bicyclo[2.2.2]octan]-3′-yl)thieno[2,3-b]pyridine-2-carboxamide hydrochloride]",449
11,"CC1(C)[C@@H](NC(=O)c2cnn3ncccc23)C2CCN1CC2 [(S)-27, (S)—N-(2,2-dimethylquinuclidin-3-yl)pyrazolo[1,5-b]pyridazine-3-carboxamide hydrochloride]",0
12,"O=C(N[C@H]1C2CCN(CC2)C12CC2)c1cnn2ncccc12 [(S)-80, (S)—N-(1′-azaspiro[cyclopropane-1,2′-bicyclo[2.2.2]octan]-3′-yl)pyrazolo[1,5-b]pyridazine-3-carboxamide hydrochloride]",2

# Same assay, conditions: 0.01 mM test compound, peak current relative to 0.2 mM ACh; hydrochloride
row,SMILES,% ACh @ 10 μM Oocyte [% ACh]
1,"O=C(NC1C2CCN(CC2)C12CC2)c1cc2ccccc2s1 (single isomer, unassigned; enantiomer2) [54b, N-(1′-azaspiro[cyclopropane-1,2′-bicyclo[2.2.2]octan]-3′-yl)benzo[b]thiophene-2-carboxamide-enantiomer2 hydrochloride]",1319
2,"O=C(NC1C2CCN(CC2)C12CC2)c1cc2cc(C3CC3)ccc2s1 (single isomer, unassigned; enantiomer2) [72b, 5-cyclopropyl-N-(1′-azaspiro[cyclopropane-1,2′-bicyclo[2.2.2]octan]-3′-yl)benzo[b]thiophene-2-carboxamide-enantiomer2 hydrochloride]",1

# Target: human 5-HT3 serotonin receptors (Homo sapiens (Human), UniProt P46098)
# Sequence (P46098 24-478): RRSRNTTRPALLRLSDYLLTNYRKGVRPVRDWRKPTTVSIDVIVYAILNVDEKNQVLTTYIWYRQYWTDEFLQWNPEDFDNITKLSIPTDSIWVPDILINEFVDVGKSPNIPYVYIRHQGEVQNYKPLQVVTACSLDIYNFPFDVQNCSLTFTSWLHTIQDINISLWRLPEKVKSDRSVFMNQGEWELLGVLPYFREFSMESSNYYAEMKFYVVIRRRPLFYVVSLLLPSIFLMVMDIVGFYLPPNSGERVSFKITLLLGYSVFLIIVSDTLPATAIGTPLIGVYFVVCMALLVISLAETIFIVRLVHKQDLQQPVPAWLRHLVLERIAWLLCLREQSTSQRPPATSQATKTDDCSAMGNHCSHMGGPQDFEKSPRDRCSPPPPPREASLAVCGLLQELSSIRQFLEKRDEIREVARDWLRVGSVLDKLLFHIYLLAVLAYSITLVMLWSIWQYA
# Assay: [3H]BRL 43694 competition binding
# Details: CHO cell membranes, [3H]BRL 43694, Cheng Prusoff; read-out: h-5HT3 Ki
row,SMILES,Ki [nM]
1,"CC1(C)[C@H](NC(=O)c2cc3cccc(-c4ccccc4)c3s2)C2CCN1CC2 [(R)-132, (R)—N-(2,2-dimethylquinuclidin-3-yl)-7-phenylbenzo[b]thiophene-2-carboxamide hydrochloride]",100
2,"CC(C)Oc1cccc2cc(C(=O)N[C@@H]3C4CCN(CC4)C34CC4)sc12 [(R)-191, (R)-7-isopropoxy-N-(1′-azaspiro[cyclopropane-1,2′-bicyclo[2.2.2]octan]-3′-yl)benzo[b]thiophene-2-carboxamide hydrochloride]",160
3,"O=C(N[C@@H]1C2CCN(CC2)C12CC2)c1ccc2oc(C3CC3)cc2c1 [(R)-183, (R)-2-cyclopropyl-N-(1′-azaspiro[cyclopropane-1,2′-bicyclo[2.2.2]octan]-3′-yl)benzofuran-5-carboxamide hydrochloride]",> 10000
4,"CC(C)c1cccc2cc(C(=O)N[C@@H]3C4CCN(CC4)C34CC4)sc12 [(R)-166, (R)-7-isopropyl-N-(1′-azaspiro[cyclopropane-1,2′-bicyclo[2.2.2]octan]-3′-yl)benzo[b]thiophene-2-carboxamide hydrochloride]",325
5,"O=C(N[C@@H]1C2CCN(CC2)C12CC2)c1cc2cc(F)c(Cl)cc2s1 [(R)-172, (R)-6-chloro-5-fluoro-N-(1′-azaspiro[cyclopropane-1,2′-bicyclo[2.2.2]octan]-3′-yl)benzo[b]thiophene-2-carboxamide hydrochloride]",4900
6,"O=C(N[C@@H]1C2CCN(CC2)C12CC2)c1cc2cccc(CC(F)(F)F)c2s1 [(R)-177, (R)—N-(1′-azaspiro[cyclopropane-1,2′-bicyclo[2.2.2]octan]-3′-yl)-7-(2,2,2-trifluoroethyl)benzo[b]thiophene-2-carboxamide hydrochloride]",690
7,"CC(C)(C)c1cccc2cc(C(=O)N[C@@H]3C4CCN(CC4)C34CC4)sc12 [(R)-184, (R)-7-(tert-butyl)-N-(1′-azaspiro[cyclopropane-1,2′-bicyclo[2.2.2]octan]-3′-yl)benzo[b]thiophene-2-carboxamide hydrochloride]",110
8,"Cc1ccc2cc(C(=O)N[C@@H]3C4CCN(CC4)C3(C)C)sc2c1C(F)(F)F [(R)-113, (R)—N-(2,2-dimethylquinuclidin-3-yl)-6-methyl-7-(trifluoromethyl)benzo[b]thiophene-2-carboxamide hydrochloride]",> 10000
9,"O=C(N[C@@H]1C2CCN(CC2)C12CC2)c1cc2ccc(Cl)c(C(F)(F)F)c2s1 [(R)-152, (R)-6-chloro-N-(1′-azaspiro[cyclopropane-1,2′-bicyclo[2.2.2]octan]-3′-yl)-7-(trifluoromethyl)benzo[b]thiophene-2-carboxamide hydrochloride]",> 10000
10,"CC1(C)[C@H](NC(=O)c2cc3cc(F)c(Cl)cc3s2)C2CCN1CC2 [(R)-123, (R)-6-chloro-N-(2,2-dimethylquinuclidin-3-yl)-5-fluorobenzo[b]thiophene-2-carboxamide hydrochloride]",> 10000
11,"Cc1ccc2cc(C(=O)N[C@@H]3C4CCN(CC4)C3(C)C)sc2c1C1CC1 [(R)-140, (R)-7-cyclopropyl-N-(2,2-dimethylquinuclidin-3-yl)-6-methylbenzo[b]thiophene-2-carboxamide hydrochloride]",22000
12,"O=C(N[C@@H]1C2CCN(CC2)C12CC2)c1cc2ccc3c(c2s1)OCCC3 [(R)-201, (R)—N-(1′-azaspiro[cyclopropane-1,2′-bicyclo[2.2.2]octan]-3′-yl)-3,4-dihydro-2H-thieno[3,2-h]chromene-8-carboxamide hydrochloride]",3600
13,"O=C(N[C@@H]1C2CCN(CC2)C12CC2)c1cc2cccc(-c3ccccc3)c2s1 [(R)-186, (R)-7-phenyl-N-(1′-azaspiro[cyclopropane-1,2′-bicyclo[2.2.2]octan]-3′-yl)benzo[b]thiophene-2-carboxamide hydrochloride]",30
14,"CCOc1cccc2cc(C(=O)N[C@@H]3C4CCN(CC4)C34CC4)sc12 [(R)-190, (R)-7-ethoxy-N-(1′-azaspiro[cyclopropane-1,2′-bicyclo[2.2.2]octan]-3′-yl)benzo[b]thiophene-2-carboxamide hydrochloride]",290
15,"O=C(N[C@@H]1C2CCN(CC2)C12CC2)c1cc2cccc(OC(F)(F)F)c2s1 [(R)-167, (R)—N-(1′-azaspiro[cyclopropane-1,2′-bicyclo[2.2.2]octan]-3′-yl)-7-(trifluoromethoxy)benzo[b]thiophene-2-carboxamide hydrochloride]",895
16,"Cc1cccc2cc(C(=O)N[C@@H]3C4CCN(CC4)C34CC4)sc12 [(R)-176, (R)-7-methyl-N-(1′-azaspiro[cyclopropane-1,2′-bicyclo[2.2.2]octan]-3′-yl)benzo[b]thiophene-2-carboxamide hydrochloride]",130
17,"CC1(c2cccc3cc(C(=O)N[C@@H]4C5CCN(CC5)C45CC5)sc23)CC1 [(R)-188, (R)-7-(1-methylcyclopropyl)-N-(1′-azaspiro[cyclopropane-1,2′-bicyclo[2.2.2]octan]-3′-yl)benzo[b]thiophene-2-carboxamide-hydrochloride]",200
18,"COc1c(C2CC2)ccc2cc(C(=O)N[C@@H]3C4CCN(CC4)C34CC4)sc12 [(R)-262, (R)-6-cyclopropyl-7-methoxy-N-(1′-azaspiro[cyclopropane-1,2′-bicyclo[2.2.2]octan]-3′-yl)benzo[b]thiophene-2-carboxamide hydrochloride]",> 10000
19,"O=C(N[C@@H]1C2CCN(CC2)C12CC2)c1cc2ccccc2[nH]1 [(R)-170, (R)—N-(1′-azaspiro[cyclopropane-1,2′-bicyclo[2.2.2]octan]-3′-yl)-1H-indole-2-carboxamide hydrochloride]",800
